Results: patent publication EP1721613A1, “Hesperidin for the treatment of epilepsy, migraine, schizophrenia, depression and drug abuse” (priority 2005, dated 2006)
“Also recorded” adds a separate entry of the source.

Legend:
[1] = test system: Pyramidenzellen im Hippokampus-Schnittpräparat; experiment: Hippocampal slice in vitro: population spike after single stimuli and long-term potentiation after theta-burst stimulation; format: cell-based, Ratte; conditions: n=6 slices; for Langzeitpotenzierung durch TBS: theta-burst stimulation, 5 bis 60 µM for Hesperidin
Excerpt: (§1) Wirkungen von Hesperidin und Hesperetin auf die Erregbarkeit der Pyramidenzellen wurden im Hippokampus-Schnittpräparat der Ratte bestimmt. Die Analyse der Wirkungen erfolgte auf drei Ebenen. Zunächst wurde anhand der Applikation von Einzelreizen die normale Erregbarkeit überprüft und anschließend nach einer sog. "Theta-burst-Stimulation" die Auswirkungen auf die Langzeitpotenzierung gemessen. Im nächsten Schritt wurde versucht, die Wirkung von Krampf auslösenden Substanzen zu antagonisieren. In einer dritten Versuchsserie wurde die Substanz eine Woche lang appliziert und dann "ex vivo" die Änderung der Erregbarkeit auf eine Provokation mit der Krampf auslösenden Substanz 3-Aminopyridin (3-AP) gemessen.
(§2) Für die Durchführung dieser Studien wurden 30 erwachsene männliche CD-Ratten verwendet. Die Isolation des Hippokampus erfolgte an äthemarkotisierten und anschließend exsanguinierten Tieren.
(§3) Das Experiment selbst wurde in einer sog. "Base Unit" mit Haas Top" (Firma Medical Systems Corp., USA) bei 35 Grad Celsius durchgeführt. Der mit Hilfe peristaltischer Pumpen (Infusomat B. Braun Melsungen AG) superfundierte Hippokampus-Schnitt lag auf einem Stück Gaze. Eingeleitetes Carbogen hielt die erforderliche Sauerstoffzufuhr der Lösung aufrecht. Die Durchflussgeschwindigkeit betrug 200 ml/h.
Die Stimulation der CA2-Region (Schaffer-Kollateralen) erfolgte unter Verwendung eines Reizgenerators (Laborcomputer Labteam der Fa. MediSyst GmbH, Linden, DE) über eine Isoliereinheit mit Hilfe einer bipolar konzentrischen Stahlelektrode (Rhodes Medical Systems, USA. Die Impulsbreite betrug 200 µs, die Stromstärke konstant 200 µA. Der Reizgenerator löste im Abstand von jeweils 20 Sekunden 4 Einzelreizungen aus, die im Schnitt insgesamt 4 Populationsspikes evozierten. Die Ableitung der Antwort erfolgte in der […] Region. Das System mittelte die Reizantwort der 4 Spike-Amplituden.
Dabei wurde der Schnitt zunächst mit Kontrolllösung superfundiert. […]

Fischer-344 Ratten = experiment: Tele-Stereo-EEG (changes of EEG frequencies in freely moving rats); format: in vivo, Ratte
Procedure: Die Veränderungen der EEG-Frequenzen nach intraperitonealer Gabe von Salzlösung (Kontrolle) bzw. verschiedener Dosen von Hesperidin (10 bis 300 mg/kg Körpergewicht sowie oral 500 mg/kg) wurden bestimmt. Ebenso wurden verschiedene Dosierungen von Hesperetin (80-320 mg/kg i.p. sowie 500 mg/kg oral untersucht.
Die Untersuchungen wurden analog der durch W. Dimpfel beschriebenen Methode (Dimpfel W Preclinical data base of pharmaco-specific rat EEG fingerprints (Tele-Stereo-EEG). Eur J Med Res (2003) 8: 199-207) folgendermaßen durchgeführt: Zwölf männlichen erwachsenen Fischer-344 Ratten (Tag-Nacht konvertiert) wurden im Alter von 6 Monaten 4 bipolar konzentrische Elektroden zusammen mit einem Mikrostecker auf einer gemeinsamen Basisplatte implantiert. Der Stecker diente der Aufnahme eines 4-Kanal-Senders zur telemetrischen Übertragung der aus frontalem Kortex, Hippokampus, Striatum und Formatio Reticularis abgeleiteten Feldpotentiale. Die Signale wurden auf einem Computer System (Software "EEG-Analyse", Betriebssystem OS Science, Laborrechner "LabTeam" der Firma MediSyst, Linden, DE) in Echtzeit einer Fast-Fourier-Transformation unterworfen und die Leistungsdichtespektren jeweils über 60 Minuten gemittelt. Die Unterteilung der Spektren in 6 verschiedene Frequenzbereiche erlaubte die Erfassung pharmako-spezifischer Veränderungen in Bezug auf die jeweils vor Applikation gemessenen Vorwerre innerhalb dieser Frequenzbänder.
Zum Applikationsprotokoll der Substanzen: die Substanzen wurden i.p. 45 Minuten nach Beginn der Messungen (Vorwert) injiziert. Fünf Minuten später wurden die Messungen wieder gestartet, mindestens über die nächsten 5 Stunden kontinuierlich analysiert und in 60-minütigen Perioden zusammengefaßt. Die Testsubstanzen wurden in einer Dosierung von 10 bis 500 mg/kg appliziert. Die experimentelle Serie wurde mit der Injektion von Salzlösung (Kontrolle), die zu keiner auffälligen Änderung führte, begonnen.
Der statistische Vergleich der Versuche zu den Ergebnissen, die nach Gabe von Salzlösung gemessen wurde, erfolgte mit Hilfe einer multivariaten Analyse nach Ahrens und Läuter (siehe H. Ahrens, J. Läuter "Mehrdimensionale Varianzanalyse" (1974), Akademie Verlag, Berlin) auf der Basis der Veränderungen innerhalb der einzelnen Frequenzbänder in allen Hirnregionen als Variablen.

[2] = test system: Pyramidenzellen im Hippokampus-Schnittpräparat; experiment: Hippocampal slice in vitro: antagonism of the 4-aminopyridine-induced change of excitability; format: cell-based, Ratte; conditions: superfused together with 4-Aminopyridin
Excerpt: as §1, §2
as §3, with “ml/h. […]” for “ml/h.”

[3] = test system: Pyramidenzellen des Hippokampus; experiment: Hippocampal slice ex vivo after 7 days of in vivo dosing: provocation with 4-aminopyridine; set-up: species or system Ratte; conditions: 500 mg/kg daily over 7 days in vivo, compared with placebo
Excerpt: as §1, with “In einer dritten Versuchsserie wurde die Substanz eine Woche lang appliziert und dann "ex vivo" die Änderung der Erregbarkeit auf eine Provokation mit der Krampf auslösenden Substanz 3-Aminopyridin (3-AP) gemessen.” left out
Dieselbe Versuchsanordnung wurde letztendlich noch einmal nach in vivo Applikation beider Substanzen in einer repetitiven Dosierung von 500 mg/kg täglich über 7 Tage im Vergleich zu Placebo angewandt (sog. "ex vivo" Design). Dabei sollte überprüft werden, ob eine repetitive Gabe zur Erregbarkeitsveränderungen der Pyramidenzellen des Hippokampus führt. […] Dieses Ergebnis ist auch ein Hinweis darauf, dass in vivo neben dem im Darm entstehenden Hesperetin auch genügend wirksames Hesperidin das Gehim erreicht. Gleichzeitig wird dadurch nochmals bestätigt, dass Hesperidin und Hesperetin ein unterschiedliches Wirkprofil haben.

[4] = test system: autosomaler dominanter nocturner Frontallappenepilepsie; experiment: Therapeutic trial in one patient with drug-resistant epilepsy; format: in vivo, Patientin
Excerpt: Um das Konzept auch am Patienten zu überprüfen, wurde einer jungen unter autosomaler dominanter nocturner Frontallappenepilepsie leidenden Patientin, die selbst in Gegenwart von 3 Gramm unterschiedlicher Antiepileptika weiterkrampfte (im Mittel 20 Anfälle pro Monat) täglich 1 Gramm Hesperidin abends vor dem Einschlafen oral über einen Zeitraum von 2 Monaten verabreicht. […] Das Ergebnis der Untersuchungen ist in Abb. 12 dokumentiert.

SMILES	Langzeitpotenzierung durch TBS [1]	Veränderungen der elektrischen Hirnaktivität (Fischer-344 Ratten; 320 mg/kg i.p., after 2 hours, frontal cortex)	EEG-Muster im Vergleich zu Referenzmedikamenten (Diskriminanzanalyse) (Fischer-344 Ratten; higher dose)	Veränderungen der elektrischen Hirnaktivität (Fischer-344 Ratten; i.p. single dose, low dose range)	EEG-Muster im Vergleich zu Referenzmedikamenten (Diskriminanzanalyse) (Fischer-344 Ratten; low doses)	Änderung der Erregbarkeit der Pyramidenzellen durch die Gegenwart von 4-Aminopyridin [2]	durch 4-Aminopyridin provozierte Erhöhung der Erregbarkeit (ex vivo) [3]	Veränderungen der Leistungsdichte in den einzelnen Hirnregionen (Fischer-344 Ratten; 20 mg/kg i.p.)	Veränderungen der Leistungsdichte in den einzelnen Hirnregionen (Fischer-344 Ratten; 40 mg/kg i.p.)	Veränderungen der Leistungsdichte in den einzelnen Hirnregionen (Fischer-344 Ratten; 300 mg/kg i.p., significant at least at P < 5%)	Veränderungen der Leistungsdichte in den einzelnen Hirnregionen (Fischer-344 Ratten; 80 und 160 mg/kg i.p., statistically significant pattern, seen over the 5 hours of the test)	Amplitude des Populationsspikes bei Einzelreizung ([1]; single stimuli, 5 bis 60 µM)	Ausprägung des alpha1 Fokus im Frontallappen (Nachuntersuchung) ([4]; 1 Gramm daily orally for 2 months)	Häufigkeit der Anfälle ([4]; 1 Gramm daily orally in the evening for 2 months, baseline on average 20 seizures per month under 3 g antiepileptics)
Fc1ccc([C@@H]2CCNC[C@H]2COc2ccc3c(c2)OCO3)cc1 [Paroxetin, reference compound]	unterdrückt die Langzeitpotenzierung	–	–	–	–	–	–	–	–	–	–	–	–	–
COc1ccc([C@@H]2CC(=O)c3c(O)cc(O)cc3O2)cc1O [Hesperetin]	–	Zunahmen der delta und alpha2 Aktivität	dem klassischer Antikonvulsiva ähnlich	im niedrigen Dosisbereich dem nach Gabe von Hesperidin entsprach	wie es für die Applikation von Mitteln gegen Migräne und Schizophrenie (Metoprolol bzw. Haloperidol und Risperidon) typisch ist	nicht jedoch von Hesperetin vermindert	nicht jedoch in den mit Placebo oder Hesperetin behandelten Tieren	–	–	–	–	–	–	–
COc1ccc([C@@H]2CC(=O)c3c(O)cc(O[C@@H]4O[C@H](CO[C@@H]5O[C@@H](C)[C@H](O)[C@@H](O)[C@H]5O)[C@@H](O)[C@H](O)[C@H]4O)cc3O2)cc1O [Hesperidin, Hesperetin 7-rhamnoglucosid]	Unterdrückung der Langzeitpotenzierung; also recorded: Konzentrations-abhängig unterdrückt	–	dem nach Gabe klassischer Antidepressiva	–	wie es für die Applikation von Mitteln gegen Migräne und Schizophrenie (Metoprolol bzw. Haloperidol und Risperidon) typisch ist	vermindert	Unterdrückung der durch 4-Aminopyridin provozierten Erhöhung	Zunahmen der alpha1 und beta Aktivität	Zunahmen der elektrischen Leistung im alpha1 und beta Bereich	generellen Abfall der elektrischen Leistung	Abnahmen der elektrischen Leistung im delta, theta und alpha2 Bereich	Unterdrückung der Pyramidenzellaktivität nach Einzelreizung; also recorded: Konzentrations-abhängigen Abfall der Amplitude des Populationsspikes	deutlich geringere Ausprägung des alphal Fokus im Frontallappen	um die Hälfte reduziert
